Source: US20240041908A1, “IMMUNOMODULATORY OLIGOSACCHARIDES FOR THE TREATMENT OF AUTISM SPECTRUM DISORDER” (Intrinsic Medicine, Inc., priority 2020, published 2024)
Where two headings read alike, the source gives them in different places.

Columns and labels:
TNFα and IL-8 = conditions: independent anti-inflammatory effects; cited from earlier work
[1] = test system: child, diagnosed with ASD with frequent anxiety and episodes of self harm; test: Case report: child diagnosed with ASD given oral 3′-sialyllactose daily; assay type: in vivo, human; conditions: 40-50 mg/kg per day orally once a day
Method: A child, diagnosed with ASD with frequent anxiety and episodes of self harm, was given 40-50 mg/kg per day 3′-sialyllactose (Glycom, food grade, GRAS) dosed orally once a day.

[2] = test system: murine and human derived macrophages stimulated with LPS; conditions: cited from earlier work; for IL-1β, IL-2, IL-4, IL-6, IL-12, IFNγ or TNF-α: in vitro

CC1O[C@@H](OC2[C@H](O[C@H]3C(O)C(O)C(O)O[C@H]3CO)OC(CO)[C@H](O)[C@@H]2O)C(O)[C@@H](O)[C@@H]1O (some centres unmarked) [2′fucosyllactose, 2′-fucosyllactose]
TNFα and IL-8 (TNFα and IL-8): reduction

CC(=O)N[C@H]1C([C@H](O)[C@H](O)CO)O[C@@](O[C@@H]2C(O)[C@H](O[C@@H]3C(CO)O[C@@H](O)C(O)[C@H]3O)OC(CO)[C@@H]2O)(C(=O)O)C[C@H]1O (some centres unmarked) [3′-sialyllactose]
heart rate ([1]; measured by parent before and after treatment): reduction in heart rate
anxiety ([1]; noted by parent): significant decrease
self-harm episodes ([1]; noted by parent): significant decrease
PDL1, COX2 and select chemokines such as CCL2 (MCP1) and CCL5 [2]: reduce
IL-1β, IL-2, IL-4, IL-6, IL-12, IFNγ or TNF-α ([2]; listed as 3′-SL): more significant reductions
IL-1β, IL-2, IL-4, IL-6, IL-12, IFNγ or TNF-α ([2]; listed as 3′SL): reductions

CC(=O)N[C@H]1C([C@H](O)[C@H](O)CO)O[C@@](OCC2O[C@@H](O[C@@H]3C(CO)O[C@@H](O)C(O)[C@H]3O)C(O)[C@@H](O)[C@H]2O)(C(=O)O)C[C@H]1O (some centres unmarked) [6′SL, 6′-sialyllactose]
IL-1β, IL-2, IL-4, IL-6, IL-12, IFNγ or TNF-α [2]: reductions
